Patent publication US11000033B2, “Ketone or oxime compound, and herbicide” (NISSAN CHEMICAL CORPORATION, priority 2014, dated 2021)

Experiments:
Type in all cases: in vivo
Chenopodium album [1] = assay: Test Example 5: herbicidal effect by foliage application, plastic box (symbol O); settings: 320 g/ha, 3 weeks after application
Method in brief: (§1)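 Leaf-applied emulsion, water-diluted to a preset herbicide dose, on two-week-old seedlings raised in a 25° C. to 30° C. greenhouse; injury rated at 3 weeks using earlier criteria.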

soybean = assay: Test Example 5: effect on crop by foliage application, plastic box (symbol d); settings: 320 g/ha, 3 weeks after application
Method in brief: (§2)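 Plants were raised from seed in a greenhouse (25° C. to 30° C.) after sowing in a plastic box of sterilized diluvial soil.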

Lolium multiflorum Lam. = assay: Test Example 4: herbicidal effect by soil treatment (symbol K); settings: application herbicide amount 320 g/ha
Method in brief: (§3)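 Seeds were sown in sterilized diluvial soil, covered with about 1.5 cm of soil, and the soil surface was sprayed with a water-diluted emulsion of the compound at a predetermined rate. Plants grew in a greenhouse at 25° C. to 30° C.; effects were scored visually 3 weeks after application.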

[2] = system: Echinochloa crus-galli var. crus-galli; assay: Test Example 4: herbicidal effect by soil treatment (symbol H); settings: application herbicide amount 320 g/ha
Method in brief: as §3

Alopecurus myosuroides = assay: Test Example 5: herbicidal effect by foliage application, plastic box (symbol J); settings: 320 g/ha, 3 weeks after application
Method in brief: as §1

Chenopodium album [3] = assay: Test Example 4: herbicidal effect by soil treatment (symbol O); settings: application herbicide amount 320 g/ha
Method in brief: as §3

rice = assay: Test Example 4: effect on crop by soil treatment (symbol b); settings: application herbicide amount 320 g/ha
Method in brief: (§4)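 Crop seed is sown in spots together with several weed species in a box of sterilized diluvial soil. It is covered by about 1.5 cm of soil and kept in a greenhouse held between 25° C. and 30° C.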

rice plant = assay: Test Example 5: effect on crop by foliage application, plastic box (symbol b); settings: 320 g/ha, 3 weeks after application
Method in brief: as §2

Veronica persica = assay: Test Example 5: herbicidal effect by foliage application, plastic box (symbol R); settings: 320 g/ha, 3 weeks after application
Method in brief: as §1

Cyperus difformis = assay: Test Example 3: herbicidal effect by foliage application, Wagner pot (symbol E); settings: application herbicide amount 320 g/ha
Method in brief: (§5)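 The compound, formulated as an emulsion and diluted with water to a predetermined rate, is applied uniformly to leaves of two-week-old seedlings growing in submerged alluvial soil at 25–30 °C. Rice is included. Each plant is assessed 3 weeks later using defined criteria.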

Amaranthus retroflexus = assay: Test Example 4: herbicidal effect by soil treatment (symbol N); settings: application herbicide amount 320 g/ha
Method in brief: as §3

beet = assay: Test Example 4: effect on crop by soil treatment (symbol f); settings: application herbicide amount 320 g/ha
Method in brief: as §4

Scirpus juncoides = assay: Test Example 1: herbicidal activity, application before weed generation in submerged conditions (symbol B); settings: application herbicide amount 320 g/ha
Method in brief: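 Mixed weed seeds sown in alluvial soil under 4 cm of water, with rice seedlings at the 2.5-leaf stage added. Same-day treatment: emulsion diluted to a set herbicide amount onto the water. Three weeks at 25–30 °C, then graded on a six-step scale.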

Stellaria media = assay: Test Example 5: herbicidal effect by foliage application, plastic box (symbol P); settings: 320 g/ha, 3 weeks after application
Method in brief: as §1

Abutilon theophrasti = assay: Test Example 5: herbicidal effect by foliage application, plastic box (symbol M); settings: 320 g/ha, 3 weeks after application
Method in brief: as §1

Leptochloa chinensis = assay: Test Example 3: herbicidal effect by foliage application, Wagner pot (symbol D); settings: application herbicide amount 320 g/ha
Method in brief: as §5

Digitaria ciliaris = assay: Test Example 4: herbicidal effect by soil treatment (symbol F); settings: application herbicide amount 320 g/ha
Method in brief: as §3

Galium spurium = assay: Test Example 5: herbicidal effect by foliage application, plastic box (symbol Q); settings: 320 g/ha, 3 weeks after application
Method in brief: as §1

Setaria viridis = assay: Test Example 5: herbicidal effect by foliage application, plastic box (symbol G); settings: 320 g/ha, 3 weeks after application
Method in brief: as §1

SMILES	O: Chenopodium album, herbicidal effect grade (Chenopodium album [1])	d: soybean, effect on crop grade (soybean)	K: Lolium multiflorum Lam., herbicidal effect grade (Lolium multiflorum Lam.)	H: Echinochloa crus-galli var. crus-galli, herbicidal effect grade [2]	J: Alopecurus myosuroides, herbicidal effect grade (Alopecurus myosuroides)	O: Chenopodium album, herbicidal effect grade (Chenopodium album [3])	b: directly sowed rice plant, effect on crop grade (rice)	b: directly sowed rice plant, effect on crop grade (rice plant)	R: Veronica persica, herbicidal effect grade (Veronica persica)	herbicidal effect on E, grade 0-5 (Cyperus difformis)	N: Amaranthus retroflexus, herbicidal effect grade (Amaranthus retroflexus)	f: beet, effect on crop grade (beet)	Herbicidal effect grade, B: Scirpus juncoides (Scirpus juncoides)	P: Stellaria media, herbicidal effect grade (Stellaria media)	M: Abutilon theophrasti, herbicidal effect grade (Abutilon theophrasti)	herbicidal effect on D (Leptochloa chinensis), grade 0-5 (Leptochloa chinensis)	F: Digitaria ciliaris, herbicidal effect grade (Digitaria ciliaris)	Q: Galium spurium, herbicidal effect grade (Galium spurium)	G: Setaria viridis, herbicidal effect grade (Setaria viridis)
CON=C(C)CC1CC(O)=C(c2c(C)cc(C)cc2Br)C1=O (centres unmarked) [6-038]	3 (Herbicidal ratio of 40% or higher and lower than 70%)	4 (Herbicidal ratio of 70% or higher and lower than 90%)	5 (Herbicidal ratio of 90% or more (almost completely withered))	5 (Herbicidal ratio of 90% or more (almost completely withered))	5 (Herbicidal ratio of 90% or more (almost completely withered))	0 (Herbicidal ratio of 5% or lower (almost no effect))	5 (Herbicidal ratio of 90% or more (almost completely withered))	5 (Herbicidal ratio of 90% or more (almost completely withered))	3 (Herbicidal ratio of 40% or higher and lower than 70%)	5 (Herbicidal ratio of 90% or more (almost completely withered))	4 (Herbicidal ratio of 70% or higher and lower than 90%)	0 (Herbicidal ratio of 5% or lower (almost no effect))	4 (Herbicidal ratio of 70% or higher and lower than 90%)	4 (Herbicidal ratio of 70% or higher and lower than 90%)	5 (Herbicidal ratio of 90% or more (almost completely withered))	5 (Herbicidal ratio of 90% or more (almost completely withered))	5 (Herbicidal ratio of 90% or more (almost completely withered))	0 (Herbicidal ratio of 5% or lower (almost no effect))	5 (Herbicidal ratio of 90% or more (almost completely withered))
CON=C(C)CC1CC(O)=C(c2c(C)cc(OCC(F)(F)F)cc2C)C1=O (centres unmarked) [6-049]	5 (Herbicidal ratio of 90% or more (almost completely withered))	2 (Herbicidal ratio of 20% or higher and lower than 40%)	5 (Herbicidal ratio of 90% or more (almost completely withered))	5 (Herbicidal ratio of 90% or more (almost completely withered))	5 (Herbicidal ratio of 90% or more (almost completely withered))	4 (Herbicidal ratio of 70% or higher and lower than 90%)	5 (Herbicidal ratio of 90% or more (almost completely withered))	5 (Herbicidal ratio of 90% or more (almost completely withered))	5 (Herbicidal ratio of 90% or more (almost completely withered))	5 (Herbicidal ratio of 90% or more (almost completely withered))	4 (Herbicidal ratio of 70% or higher and lower than 90%)	3 (Herbicidal ratio of 40% or higher and lower than 70%)	5 (Herbicidal ratio of 90% or more (almost completely withered))	5 (Herbicidal ratio of 90% or more (almost completely withered))	3 (Herbicidal ratio of 40% or higher and lower than 70%)	5 (Herbicidal ratio of 90% or more (almost completely withered))	5 (Herbicidal ratio of 90% or more (almost completely withered))	5 (Herbicidal ratio of 90% or more (almost completely withered))	5 (Herbicidal ratio of 90% or more (almost completely withered))
